Converted amounts (≈) assume the structure as drawn.
Key:
Format in all cases: cell-based, human
[1] = tested on: JNK; assay: Western blot JNK phosphorylation; conditions: THP-1, 24 h; specioside all concentrations except 60 μg/mL in presence of APC
Experimental: (§1) THP-1 cells were seeded in 24-well plates (5 × 10^5 cells/well), and after 24 h of incubation, they were pretreated with 1 µM apicidin for 24 h and then treated with different concentrations of the n-butanol extract, catalposide, and specioside for 24 h. After treatment, the cells were lysed with an Abcam protein extraction kit (ab270054), and a phosphatase inhibitor cocktail (ab201115) was added. The supernatants of the cell extracts were quantified with a BCA protein assay (Thermo Scientific Pierce #23227, Waltham, MA, USA). Equivalent amounts of protein were electrophoresed on 10% SDS polyacrylamide gels and then electroblotted onto 0.45 μm polyvinylidene difluoride (PVDF) membranes (GE Healthcare, Chicago, IL, USA). […] The signals were detected using SuperSignal™ West Pico PLUS Chemiluminescent Substrate (Thermo Scientific Pierce cat 34577) and analyzed with a ChemiDoc XRS+ system (Bio-Rad, Hercules, CA, USA). The density of each band was measured using ImageJ software V. 1.53n, 7 November 2021 (NIH, Bethesda, MD, USA), and the protein levels were normalized to the GAPDH levels. The data are expressed as the means of three independent experiments. […]

[2] = tested on: BAX; assay: Western blot Bax protein; conditions: THP-1, catalposide 44 and 66 μg/mL, specioside 20, 40 and 60 μg/mL
Experimental: as §1

[3] = tested on: Jurkat cells; assay: MTT cell viability assay, Jurkat cells; conditions: for IC50: Homo sapiens, Jurkat, MTT, n = 3; for SI (selectivity index): IC50 PBMC / IC50 Jurkat
Experimental: Jurkat and THP-1 cell lines were purchased from the American Type Culture Collection (ATCC, Rockville, MD, USA); Jurkat is a human lymphocytic cell line representing acute T-cell leukemia, and THP-1 is a monocytic cell line that represents acute myelogenous leukemia (AML). […] Cat Nos. […] The cells were maintained at 37 °C in a humidified atmosphere with 5% CO2. The culture medium was exchanged with fresh medium every 2-3 days. Peripheral blood mononuclear cells (PBMCs) were isolated from normal human venous blood. Further, 10 milliliters of human blood was mixed with 10 mL of RPMI-1640 containing 50 μL of heparin and gradually poured over 1 mL of HISTOPAQUE®-1119 (Sigma). The plasma was removed by centrifugation at 3000 rpm for 30 min. The peripheral blood mononuclear cell-containing layer was collected with a pipette and diluted in 4 mL of PBS. PBMCs were harvested by centrifugation at 1500 rpm for 10 min at room temperature, resuspended in RPMI-1640 with 10% FBS, and incubated at 37 °C in 5% CO2 humidified air. […] Doxorubicin was used as a reference standard drug (positive control). After treatment, the medium was discarded; 200 μL of RPMI 1640 medium without phenol red containing 0.5 mg/mL MTT (Sigma Chemical Co., Saint Louis, MO, USA; Cat. No. […] The plates were incubated for four hours at 37 °C with 5% CO2 in a humidified atmosphere. The medium was discarded, and 100 μL of DMSO was added to solubilize the formazan crystals. The absorbance was measured with an ELISA microplate reader at 492 nm (ELx800; BioTek Instruments Inc., Winooski, VT, USA). The percentage of viable cells was calculated on the basis of the nontreated control (taken as 100%). […] Three independent assays were performed, each in triplicate. The selectivity index corresponds to the ratio of the IC50 value calculated for the activity of synthesized compounds on a regular cell line (PBMCs) to that of the IC50 calculated for cancer cell lines (Jurkat and THP-1). Values greater than two were optimal for an efficient selectivity index.

[4] = tested on: Bcl-2; assay: Western blot Bcl-2 protein; conditions: THP-1, catalposide 44 μg/mL, specioside 40 μg/mL, APC pretreatment (Figure 9)
Experimental: as §1

[5] = tested on: BAX; assay: RT-qPCR BAX mRNA expression; conditions: THP-1, catalposide 44 and 66 μg/mL, specioside 20, 40 and 60 μg/mL
Experimental: After treatment, mRNA extraction was performed using the RNeasy Plus Mini Kit (Qiagen, Germantown, MD, USA; Cat No. 74134). The mRNA was quantified with a NanoDrop 2000c (Thermo Fisher Scientific, Waltham, MA, USA). The expression of the MAPK14 (gene encoding p38), BCL2, and BAX genes was evaluated by qRT–PCR and quantified with the 2^−ΔΔCt method in the Applied Biosystems StepOnePlus Real-Time PCR System (Applied Biosystems, Foster City, CA, USA), which uses predesigned TaqMan Gene Expression Assays (codes […], Hs00608023_m1, and Hs00180269_m1, respectively) (Applied Biosystems, Foster City, CA, USA) and the TaqMan® RNA-to-CT TM 1-Step Kit (Applied Biosystems, Foster City, CA, USA, Cat No. 4392653). The reaction mixture was incubated at 48 °C for 15 min and 95 °C for 10 min and then cycled (40 cycles) at 95 °C for 15 s and 60 °C for 1 min. GAPDH was used as an endogenous control.

[6] = tested on: THP-1 cells; assay: Cell cycle analysis by flow cytometry; conditions: THP-1 (Figure S6)
Experimental: After treatment with the extract, 7 × 10^4 cells were harvested, washed with PBS, fixed with 200 µL of ice-cold 70% ethanol, and maintained at 4 °C for 4 h before staining. The cell pellet was washed in 1X PBS, resuspended in 200 µL of Guava Cell Cycle reagent (#4500-0220, Millipore), and incubated in the dark at 37 °C for 30 min before analysis with a Guava flow cytometer (Merck Millipore, Bedford, MA, USA) using InCyte software (version 3.1, Merck Millipore).. Centrifugation was performed at 1200 rpm for 5 min at room temperature for each step.

[7] = tested on: ERK; assay: Western blot ERK phosphorylation; conditions: THP-1, 24 h
Experimental: as §1

Row | SMILES | phosphorylation of the JNK protein compared with control [1] | expression of Bax protein with APC pretreatment [2] | IC50 ([3]; 12 h) [µg/mL] | IC50 ([3]; 24 h) [µg/mL] | IC50 ([3]; 48 h) [µg/mL] | SI (selectivity index) ([3]; 12 h) | SI (selectivity index) ([3]; 24 h) | SI (selectivity index) ([3]; 48 h) | antiapoptotic protein Bcl-2 (Western blot) [4] | expression of Bax mRNA with APC pretreatment [5] | percentage of cells in the G0/G1 phase compared with control [6] | phosphorylation of the ERK protein compared with control [7]
1 | O=C(O[C@H]1[C@@H]2C=CO[C@@H](O[C@@H]3O[C@H](CO)[C@@H](O)[C@H](O)[C@H]3O)[C@@H]2[C@@]2(CO)O[C@@H]12)c1ccc(O)cc1 [Catalposide, catalposide] | did not significantly change | increased | 107 ± 5.3 (≈ 221 µM) | 92.8 ± 1.5 (≈ 192 µM) | 71.2 ± 2.8 (≈ 148 µM) | 1.18 | 0.94 | 0.61 | decrease | increased | the increase was significant | decreased protein phosphorylation but not significantly
2 | O=C(/C=C/c1ccc(O)cc1)O[C@H]1[C@@H]2C=CO[C@@H](O[C@@H]3O[C@H](CO)[C@@H](O)[C@H](O)[C@H]3O)[C@@H]2[C@@]2(CO)O[C@@H]12 [Specioside] | significantly phosphorylated | increased | 137.7 ± 1.3 (≈ 271 µM) | 81.7 ± 3.5 (≈ 161 µM) | 68.9 ± 2.1 (≈ 135 µM) | 1.20 | 0.86 | 0.79 | decrease | increased | the increase was significant | did not significantly change

Reference: PMC11396062, “The n-Butanol Extract Obtained from the Inner Bark of Tabebuia rosea (Bertol.) DC, Specioside, and Catalposide Induce Leukemia Cell Apoptosis in the Presence of Apicidin” (Molecules, 2024)
